The values that follow come from US3963758A, “2-(Benzofuroyl)phenyl acetic acids” (Serdex - Societe d'Etudes, de Recherches, de Diffusion et …, priority 1973, dated 1976).

For data set [1], the system named is carrageenin-induced edema. Put plainly: Acute carrageenin-induced edema. The data set is classed as in vivo. The settings on record: oral, male rats; for ED50: Rattus norvegicus; for ED50 / Carrageenin-induced edema ED50: 1 hour prior to carrageenin, edema at 3 hours; for Carrageenin-induced edema percent protection: 3 hours; for Carrageenin-induced edema ED50: 180 min. How it is done: c. Anti-inflammatory activity
1- Acute carrageenin-induced edema (Winster C. A., Risley E. A., Nuss G.W., Proc. Soc. Biol. Med., 1962, 3, 544-7)
Subplantar injection in the paw of rats of 0.05 ml of an aqueous gel containing 1% carrageenin induces a local edema which may be measured by means of an electric mercury plethysmometer.
Determination of the volume of the forepaw prior, and three hours after the carrageenin injection, makes it possible to calculate the percent inflammation.
The treatment is administered orally, one hour prior to carrageenin administration.
The tests are conducted only with homogeneous lots of 10 male rats weighing 180 g ± 10 g.
The resulting edema is evaluated for each animal by means of the ratio: [formula] in which:
Vo of the paw at time 3 hrs Vo = volume of the paw at time zero
The protection noted under the effect of the test material may be evaluated by comparing the percent edema determined in the treated lot with respect to the reference lot.
(In general: In the carrageenan paw model, swelling and tenderness develop within hours.)

In data set [2] the test system is Turfyl nicotinate (Trafuril)-induced erythema. Put plainly: Turfyl nicotinate (Trafuril)-induced erythema. The data set is classed as in vivo. The following applies: oral, male albino guinea-pigs; for ED50: Cavia porcellus; for ED50 / Trafuril ED50: 1 hour prior to test. On the procedure:
2 - Turfyl nicotinate (Trafuril) -induced erythema
A slight modification of the HAINING method (Br. Jl. Pharmacol., 1963, 21, 104-12) is used:
The test is carried out with homogeneous lots of 6-12 male albino guinea-pigs weighing 300-400 g, after careful depilation of the skin of their backs on the previous day.
On the day of the test, a disk for antibiotic sensitivity determination impregnated with a 5% alcoholic Turfyl nicotinate solution is applied during one minute on the lumbar area.
The effect produced is recorded after five minutes.
The results are rated according to an "all or nothing" scale, according to whether or not an erythema appears at the locus of application of the disk.
The treatment is administered orally one hour prior to the test, under an uniform volume of 1 ml/kg body weight; the test materials are homogeneously suspended with 3% gum arabic.
The reference animals are administered an equal volume of carrier.
The percent erythema obtained in the treated animals is compared with that obtained in the simultaneously tested reference lot.

In data set [3] the test system is phenylbenzoquinone-induced writhing movements. Put plainly: Analgesic activity, Siegmund Test (phenylbenzoquinone writhing). The settings on record: mice; for ED50: Mus musculus, ip; for ED50 / Siegmund ED50: test material 1 hour before phenylbenzoquinone i.p. The data set is classed as in vivo. How it is done: Siegmund Test (Proc. Soc. Exp. Biol. Med., 1957, 95, 729-31)
Intraperitoneal injection of 0.25 ml of an aqueous-alcoholic 2-phenyl-1,4-benzoquinone solution at a concentration of 0.02% induces in mice a specific syndrome characterized by the stretching of the hind paws and writhing movements of the trunk.
The tests are carried out with homogeneous lots of 20-30 mice having an average weight of 20 g.
The animals are administered the test material at time zero. One hour later, phenylbenzoquinone is administered by the intraperitoneal route. The animals are individually kept under observation during 5 minutes, between the fifth and the tenth minute after phenylbenzoquinone injection.
The present activity of the test material is evaluated by comparing the number of writhing movements of the treated animals with respect to the reference animals.
(In general: An intraperitoneal irritant provokes the stretching counted in writhing tests.)

Data set [4] concerns adjuvant arthritis (Mycobacterium butyricum). Put plainly: Adjuvant arthritis. The class given is in vivo. The settings on record: at 20 mg/kg; oral, daily, 14th to 28th day; male rats. On the procedure: According to the works by PEARSON C. M. (J. Chronic. Dis., 1963, 16, 863-74), JONES R. D. and WARD J. R. (Recent progress in hormone research, vol. XIX, 1963, Ac. Press), WARD T. R., JONES R. S. (Arthritis and Rheumatism, 1962, 5, 557-64).
The tests are carried out in male rats weighing 151 g ± 20 g. On day 0, the animals are given intradermally, at the base of the tail, an 0.05 ml injection of a suspension of Mycobacterium butyricum in paraffin oil (12 mg killed microbial bodies/ml). The animals are selected on the 14th day and are distributed into homogeneous lots of 15 animals.
The treatment is administered orally, daily, from the 14th to the 28th day.
The chronic arthritis is evaluated according to two criteria:
Arthritis index, by separate scoring of the injuries (erythema, edema, distortions) of each of the four limbs (according to a scoring scale from 0 to 3; maximum score: 12) in each animal on the 14th day, the 18th day, the 21st day, the 24th day and the 28th day (the scoring is effected blind, by two different experimenters).
Sedimentation rate according to KOWARSKI (pipette held at an angle of 45°; recording time: 30 minutes).
The blood sample is taken by the retro-orbicular route. The determination is effected on the 14th, the 21st and the 28th day. […]

Data set [5] can be described thus: Acute toxicity, oral, mice. The following applies: mouse, in vivo, fasting mice, 14 days observation. On the procedure:
(§1) Acute toxicity is determined by oral administration of the test material in fasting mice and rats.
(§2) The compound of Example 1 is homogeneously suspended in a carrier comprising a 3% gum arabic solution.
(§3) The animals are kept under observation during 14 days after the treatment.

The subject of data set [6] is Bradykinine-induced bronchoconstriction. Put plainly: Anti-bradykinine activity (Konzett and Rossler technique). The settings on record: I.V., dosage of 100 γ/kg; bradykinine 20 γ/kg I.V. The class given is in vivo, guinea-pig. The text has this: c. Anti-bradykinine activity
The antagonistic action of the compound described in Example 1 was studied with respect to a Bradykinine-induced bronchoconstriction in guinea-pig (20 γ/kg I.V.).
The technique used was the conventional technique described by KONZETT and ROSSLER (Arch. Exp. Path. Pharmakol., 195, 71-74) and later by HARICHAUX (C.R. Soc. Biol., 158, 12, 2437-2441).

Data set [7] in a line: Acute toxicity, oral, rats. The settings on record: rat, in vivo, fasting rats, 14 days observation. On the procedure:
as §1, §2, §3

The ED50 is the midpoint of the dose-response relation. By LD50 is commonly meant the dose at which mortality reaches 50%. Higher therefore signals a less toxic substance. With `CC(C(=O)O)c1cccc(C(=O)c2cc3ccccc3o2)c1` (racemic) [Example 1, 2-[3-(2-benzofuroyl)-phenyl]-propionic acid], the values for the ED50 in data set [1], in data set [2] and in data set [3] were 9 mg/kg, 3.6 mg/kg and 0.72 mg/kg, respectively. In addition, the “Activity in adjuvant arthritis” value in data set [4] was “active”. The results for the LD50 at 336 h in data set [5] and in data set [7] were 2500 mg/kg and 1300 mg/kg, respectively. For the same molecule, the “Inhibition of bradykinine-induced bronchospasm” value in data set [6] was “inhibited”.
On to `O=C(O)Cc1ccc(C(=O)c2cc3ccccc3o2)cc1` [Example 2, [4-(2-benzofuroyl)-phenyl]acetic acid], for which the “Carrageenin-induced edema percent protection” value in data set [1] (50 mg) is 15%. Also, the Siegmund percent protection in data set [3] (50 mg) is 28%.
`O=C(O)Cc1cccc(C(=O)c2cc3ccccc3o2)c1` [Example 3, [3-(2-Benzofuroyl)-phenyl]acetic acid]: the “Carrageenin-induced edema percent protection” value in data set [1] (100 mg) is recorded as 10%. Besides, the Trafuril percent protection in data set [2] (100 mg) turned out to be 17%. Also, the Siegmund percent protection in data set [3] (10 mg) turned out to be 32%; in data set [3] (50 mg), 50%.
Take `CC(C(=O)O)c1ccc(C(=O)c2cc3ccccc3o2)cc1` (stereo not shown) [Example 4, 2-[4-(2-Benzofuroyl)-phenyl]propionic acid]: the results for the 50% effective dose (ED50) in data set [1], in data set [2] and in data set [3] were 170 mg/kg, 115 mg/kg and 5 mg/kg, respectively.
Turning to `Cc1c(C(=O)c2ccc(CC(=O)O)cc2)oc2ccccc12` [Example 5, 4-[2-(3-Methyl-benzofuroyl)]-phenyl acetic acid], the “Carrageenin-induced edema percent protection” value in data set [1] (100 mg) is listed as 15%. In data set [3] (50 mg), the Siegmund percent protection is 14%.
For the molecule `COc1ccc(C(C)C(=O)O)cc1C(=O)c1cc2ccccc2o1` (stereo not shown) [Example 6, 2-[3-(2-benzofuroyl)-4-methoxy-phenyl]propionic acid], the ED50 was more than 20 mg/kg in data set [1] and approximately 15 mg/kg in data set [3].
On to `COc1ccc2oc(C(=O)c3cccc(C(C)C(=O)O)c3)cc2c1` (stereo not shown) [Example 7], for which the results for the ED50 in data set [1] and in data set [3] were less than 20 mg/kg and less than 60 mg/kg, respectively.
In the case of `CC(C(=O)O)c1cccc(C(=O)c2cc3ccccc3o2)c1` (stereo not drawn) [Example 9, d-2-[3-(2-Benzofuroyl)-phenyl]propionic acid], the “Carrageenin-induced edema ED50” value in data set [1] is recorded as 8 mg/kg. For the same molecule, the “Trafuril ED50” value in data set [2] is on record as 2.3 mg/kg. Also, the “Siegmund ED50” value in data set [3] was less than 6 mg/kg.
For the molecule `CC(C(=O)O)c1cccc(C(=O)c2cc3ccccc3o2)c1` (stereo not drawn) [Example 10, l-2-[3-(2-Benzofuroyl)-phenyl]propionic acid], the “Carrageenin-induced edema ED50” value in data set [1] was approximately 11.5 mg/kg. The “Trafuril ED50” value in data set [2] was 8 mg/kg. In addition, in data set [3], the “Siegmund ED50” value is reported as less than 6 mg/kg.
